18 compounds from ChEMBL document CHEMBL3608300, “Synthesis and anticancer activity of novel curcumin-quinolone hybrids” (Bioorg Med Chem Lett, 2015) can be followed below.

Assay [1] deals with A549. Nature of the assay: Cytotoxicity against human A549 cells after 24 hrs by MTT assay. The class given is functional, cell-based. The settings on record: A549, 24 h. Background: Tetrazolium dyes change colour on reduction, which living cells bring about.
For assay [2], the system named is MCF7. Nature of the assay: Cytotoxicity against human MCF7 cells after 24 hrs by MTT assay. In kind it is functional, cell-based. The settings on record: MCF7, 24 h.
In assay [3] the test system is SK-OV-3. The experiment in a line: Cytotoxicity against human SKOV3 cells after 24 hrs by MTT assay. In kind it is functional, cell-based. The following applies: SK-OV-3, 24 h.
Assay [4] in a line: Cytotoxicity against human H460 cells after 24 hrs by MTT assay. In kind it is functional, cell-based. The following applies: NCI-H460, 24 h.
Assay [5] relates to A549. Nature of the assay: Cytotoxicity against human A549 cells up to 10 uM after 24 hrs by MTT assay. In kind it is functional, cell-based.
For assay [6], the system named is MCF7. Nature of the assay: Cytotoxicity against human MCF7 cells up to 10 uM after 24 hrs by MTT assay. In kind it is functional, cell-based.
Assay [7] has as its system SK-OV-3. The experiment in a line: Cytotoxicity against human SKOV3 cells up to 10 uM after 24 hrs by MTT assay. In kind it is functional, cell-based.
Assay [8] has as its system NCI-H460. The experiment in a line: Cytotoxicity against human H460 cells up to 10 uM after 24 hrs by MTT assay. In kind it is functional, cell-based.
Assay [9] has as its system NCI-H460. The experiment in a line: Cytotoxicity against human H460 cells up to 30 uM after 24 hrs by MTT assay. In kind it is functional, cell-based.
The nature of assay [10]: Cytotoxicity against mouse NIH/3T3 cells assessed as cell viability at IC50 after 24 hrs by MTT assay. The class given is functional, NIH3T3.
Assay [11] has as its system SK-OV-3. Nature of the assay: Induction of cell morphological changes in human SKOV3 cells assessed as cell shrinkage and development of bubble like blebs on membranes at IC50 after 24 hrs by phase contrast microscope analysis. The class given is functional, cell-based.
The test system of assay [12] is SK-OV-3. The experiment in a line: Induction of cell morphological changes in human SKOV3 cells assessed as cells with ruptured cell membranes at IC50 after 24 hrs by phase contrast microscope analysis. The class given is functional, cell-based.
Assay [13] relates to SK-OV-3. The experiment in a line: Induction of apoptosis in human SKOV3 cells assessed as dead cells at IC50 after 24 hrs using Annexin V-PE/7AAD staining by flow cytometry (reference value: 0.7%). In kind it is functional. Background: In flow cytometry, cells or beads pass a laser one at a time.
Assay [14] concerns SK-OV-3. The experiment in a line: Induction of apoptosis in human SKOV3 cells assessed as apoptotic cells at IC50 after 24 hrs using Annexin V-PE/7AAD staining by flow cytometry (reference value: 9.0%). In kind it is functional.
The test system of assay [15] is SK-OV-3. The experiment in a line: Induction of apoptosis in human SKOV3 cells assessed as live cells at IC50 after 24 hrs using Annexin V-PE/7AAD staining by flow cytometry (reference value: 83.4%). In kind it is functional.
The test system of assay [16] is SK-OV-3. Nature of the assay: Induction of apoptosis in human SKOV3 cells assessed as early apoptotic cells at IC50 after 24 hrs using Annexin V-PE/7AAD staining by flow cytometry (reference value: 6.8%). The class given is functional.
Assay [17] has as its system SK-OV-3. The experiment in a line: Induction of ROS production in human SKOV3 cells at IC50 after 3 hrs using DCFDA dye by flow cytometry relative to control. The class given is functional.
Assay [18] deals with SK-OV-3. Nature of the assay: Cell cycle arrest in human SKOV3 cells assessed as accumulation at S phase at IC50 after 24 hrs using hypo propidium iodide staining by flow cytometry (reference value: 11.4%). The class given is functional.
For assay [19], the system named is SK-OV-3. Nature of the assay: Cell cycle arrest in human SKOV3 cells assessed as accumulation at G2/M phase at IC50 after 24 hrs using hypo propidium iodide staining by flow cytometry (reference value: 15.43%). The class given is functional.
Assay [20] deals with SK-OV-3. The experiment in a line: Cell cycle arrest in human SKOV3 cells assessed as accumulation at G0/G1 phase at IC50 after 24 hrs using hypo propidium iodide staining by flow cytometry (reference value: 72.52%). The class given is functional.
The test system of a further assay is SJRH30. Nature of the assay: Induction of ROS production in human Rh30 cells at 10 uM after 1 to 2 hrs relative to control. The class given is functional.
The subject of another assay is HT-29. Nature of the assay: Cell cycle arrest in human HT-29 cells assessed as accumulation at G2/M phase at 50 uM after 24 hrs (reference value: 12%). In kind it is functional.
In the next assay the test system is HCT-15. Nature of the assay: Cell cycle arrest in human HCT15 cells assessed as accumulation at G2/M phase at 50 uM after 24 hrs (reference value: 17%). In kind it is functional.
The test system of assay [21] is MCF7. Nature of the assay: Cell cycle arrest in human MCF7 cells assessed as accumulation at G2/M phase at 10 uM after 24 hrs (reference value: 9%). In kind it is functional.
For assay [22], the system named is A549. Nature of the assay: Cytotoxicity against human A549 cells up to 30 uM after 24 hrs by MTT assay. The class given is functional, cell-based.
In assay [23] the test system is MCF7. Nature of the assay: Cytotoxicity against human MCF7 cells up to 30 uM after 24 hrs by MTT assay. The class given is functional, cell-based.
In assay [24] the test system is SK-OV-3. Nature of the assay: Cytotoxicity against human SKOV3 cells up to 30 uM after 24 hrs by MTT assay. In kind it is functional, cell-based.

pIC50: −log10 of the molar value. Activity calls are given as the source filed them. The rule behind the calls is not given here.

`C#CCn1c(=O)c(C=O)cc2cc(C)ccc21`: the pIC50 (in the assay with A549 [1]; in the assay on MCF7 [2]; in the assay with SK-OV-3 [3]; in assay [4]) was under 4.00 each time.

Turning to `C#CCn1c(=O)c(C=O)cc2cc(OC)ccc21`, the pIC50 (in the assay with A549 [1]; in the assay with MCF7 [2]; with SK-OV-3 [3]; in [4]) was under 4.00 in each case.

Consider `C=CCn1c(=O)c(C=O)cc2ccccc21`, for which the pIC50 (with A549 [1]; with MCF7 [2]; with SK-OV-3 [3]; in assay [4]) was under 4.00 each time.

Turning to `O=Cc1cc2ccccc2n(Cc2ccccc2)c1=O`, the pIC50 (usually the IC50 on a negative log10 scale, so that one unit is a factor of ten) in the assay with A549 [1] is under 4.00; in the assay on MCF7 [2], 4.50; in the assay with SK-OV-3 [3], under 4.00; in [4] it was under 4.00.

Take `COc1cc(/C=C/C(O)=C/C(=O)/C=C/c2cc3ccccc3n(Cc3ccccc3)c2=O)ccc1O`: the outcome in the assay on A549 [5], in the assay with MCF7 [6], with SK-OV-3 [7] and in the assay with NCI-H460 [8] was inactive.

As to `COc1cc(/C=C/C(O)=C/C(=O)/C=C/c2cc3ccccc3[nH]c2=O)ccc1O`, the outcome in the assay on A549 [5], with MCF7 [6], in the assay on SK-OV-3 [7] and with NCI-H460 [8] was inactive.

With `C#CCn1c(=O)c(/C=C/C(=O)/C=C(O)/C=C/c2ccc(O)c(OC)c2)cc2cc(OC)ccc21`, the pIC50 is 4.69 in the assay with A549 [1], under 4.00 in the assay with MCF7 [2], 4.85 in the assay on SK-OV-3 [3] and 4.42 in assay [4].

For the compound `C=CCn1c(=O)c(/C=C/C(=O)/C=C(O)/C=C/c2ccc(O)c(OC)c2)cc2ccccc21`, the pIC50 in the assay on A549 [1] was 4.50; with MCF7 [2], 4.63; in the assay with SK-OV-3 [3], 4.59. The result in the assay on NCI-H460 [9] was inactive.

For the compound `C#CCn1c(=O)c(/C=C/C(=O)/C=C(O)/C=C/c2ccc(O)c(OC)c2)cc2cc(C)ccc21`, the pIC50 in the assay with A549 [1] is 4.62; in the assay with MCF7 [2], 4.44; with SK-OV-3 [3] it was 4.89; in [4], 4.66. In addition, the Activity is 74.5% in assay [10]; 7.3% in the assay with SK-OV-3 [13]; 62.5% in the assay with SK-OV-3 [14]; 27.7% in the assay on SK-OV-3 [15]; 2.5% with SK-OV-3 [16]; 61.5% in the assay with SK-OV-3 [17]. The figures for the Activity with SK-OV-3 [18], in the assay with SK-OV-3 [19] and in the assay on SK-OV-3 [20] were 19.49%, 25% and 54.43%, respectively. The result in the assay with SK-OV-3 [11] and with SK-OV-3 [12] was Active.

Consider `COc1cc(/C=C/C(=O)CC(=O)/C=C/c2ccc(O)c(OC)c2)ccc1O` [CURCUMIN], for which the pIC50 was 4.22 with A549 [1], 4.49 with MCF7 [2], 4.36 in the assay on SK-OV-3 [3] and 4.08 in assay [4]. The “fold change (FC)” value in the assay with SJRH30 is on record as 1.5. Besides, the Activity with HT-29 worked out at 33%; in the assay with HCT-15 it was 32%; in the assay on MCF7 [21] it was 28%.

`C#CCn1c(=O)c(C=O)cc2ccccc21`: the pIC50 (in the assay with A549 [1]; in the assay on MCF7 [2]; with SK-OV-3 [3]; in assay [4]) was under 4.00 each time.

On to `C#CCn1c(=O)c(C=O)cc2cc(F)ccc21`, for which the negative logarithm of the IC50 (pIC50) (with A549 [1]; in the assay on MCF7 [2]; in the assay with SK-OV-3 [3]; in assay [4]) was under 4.00 each time.

With `O=C(/C=C(O)/C=C/c1cc2ccccc2[nH]c1=O)/C=C/c1cc2ccccc2[nH]c1=O`, the pIC50 was 4.16 in the assay with A549 [1], 4.50 with MCF7 [2], 4.47 in the assay on SK-OV-3 [3] and 4.20 in [4].

Take `C#CCn1c(=O)c(C=O)cc2cc(Cl)ccc21`: the pIC50 (in the assay on A549 [1]; with MCF7 [2]; in the assay with SK-OV-3 [3]; in [4]) was under 4.00 throughout.

`C#CCn1c(=O)c(/C=C/C(=O)/C=C(O)/C=C/c2ccc(O)c(OC)c2)cc2cc(Cl)ccc21`: the result with A549 [22], in the assay with MCF7 [23], with SK-OV-3 [24] and with NCI-H460 [9] was inactive.

With `C#CCn1c(=O)c(/C=C/C(=O)/C=C(O)/C=C/c2ccc(O)c(OC)c2)cc2ccccc21`, the pIC50 is 4.67 in the assay on A549 [1], 4.82 in the assay with MCF7 [2], 4.72 with SK-OV-3 [3] and 4.60 in [4].

Turning to `C#CCn1c(=O)c(/C=C/C(=O)/C=C(O)/C=C/c2ccc(O)c(OC)c2)cc2cc(F)ccc21`, the pIC50 was 4.39 in the assay with A549 [1], 4.60 with MCF7 [2], under 4.00 with SK-OV-3 [3] and 4.35 in assay [4].

Take `O=Cc1cc2ccccc2[nH]c1=O`: the pIC50 (in the assay with A549 [1]; with MCF7 [2]; in the assay with SK-OV-3 [3]; in assay [4]) was under 4.00 throughout.
